According to patent US20240261411A1, “PERMEATION ENHANCERS FOR GASTROINTESTINAL SYNTHETIC EPITHELIAL LININGS” (Syntis Bio, Inc., priority 2023, published 2024):

Columns and labels:
[1] = Franz cell permeability of semaglutide; settings: Franz cells, porcine duodenal tissue
Description: Franz cells were used for testing different permeation enhancers on ex vivo tissue from the small intestine, such as porcine duodenal tissue (or colon tissue where indicated). Water pumps were attached to the Franz cell rack to maintain each Franz cell at 37° C. The racks were loaded with Franz cells, and each cell was filled with 5 mL of phosphate buffered saline. Tissue was cut into ˜3.2×3.2 cm squares and any large clumps of mucus or excrement was removed before mounting onto the Franz cells. Next, gastrointestinal synthetic epithelial lining (GSEL) solutions were prepared by first weighing out dopamine HCl, polydopamine, and a permeation enhancer into a vial. […] Samples from the receiving compartment was periodically collected from 0 to 24 hours and the concentration of API was measured. […]
The same experiment was carried out, except without using a permeation enhancer in the GSEL solution. The amount of API detected in the receiving compartment for GSELS with permeation enhancer was compared to the amount of API detected in the receiving compartment for GSELs without permeation enhancer at each time point to determine the increase in permeation provided by the permeation enhancer.

[2] = pig model, semaglutide pharmacokinetics after endoscopic placement or IV; set-up: species or system Yorkshire pigs; settings: in vivo, 1.5 mg/kg
From the text: Yorkshire pigs, weighing 40-80 kg each over 7 months and approximately 4-9 months of age were used. Following routine preoperative fast, pigs were anesthetized, intubated, and maintained on isoflurane anesthesia during the procedure. An indwelling marginal ear vein catheter was be inserted for blood collection, which occurred over 1-7 days. Dry GSEL powders containing permeation enhancers and semaglutide were solubilized with Tris buffer immediately before administration. An endoscope guided catheter was placed into the proximal small intestines, where the GSEL suspensions were injected. Blood was taken periodically from the ear vein catheter and the blood was immediately centrifuged down in serum collection tubes. Samples were analyzed via ELISA and LC-MS. Pigs were woken up after 6 hours and monitored until full recovery.
For the following experiment, a ratio of formulation components as presented in Table E8 was used (e.g., 2×GSEL, 6.4 mg/kg GCA, 6.4 mg/kg NHCO, with semaglutide at a final ratio of 20:2.35 permeation enhancer to semaglutide).

absorption, in words [2] | SMILES | semaglutide permeability, comparison in words [1]
– | O=C([O-])CCCCCCCNC(=O)c1ccccc1O.[Na+] [SNAC, sodium N-[8-(2-hydroxybenzoyl)amino]caprylate] | did not promote permeation of semaglutide as much
zero absorption | CC[C@H](C)[C@H](NC(=O)[C@H](Cc1ccccc1)NC(=O)[C@H](CCC(=O)O)NC(=O)[C@H](CCCCNC(=O)COCCOCCNC(=O)COCCOCCNC(=O)CC[C@H](NC(=O)CCCCCCCCCCCCCCCCC(=O)O)C(=O)O)NC(=O)[C@H](C)NC(=O)[C@H](C)NC(=O)[C@H](CCC(N)=O)NC(=O)CNC(=O)[C@H](CCC(=O)O)NC(=O)[C@H](CC(C)C)NC(=O)[C@H](Cc1ccc(O)cc1)NC(=O)[C@H](CO)NC(=O)[C@H](CO)NC(=O)[C@@H](NC(=O)[C@H](CC(=O)O)NC(=O)[C@H](CO)NC(=O)[C@@H](NC(=O)[C@H](Cc1ccccc1)NC(=O)[C@@H](NC(=O)CNC(=O)[C@H](CCC(=O)O)NC(=O)C(C)(C)NC(=O)[C@@H](N)Cc1cnc[nH]1)[C@@H](C)O)[C@@H](C)O)C(C)C)C(=O)N[C@@H](C)C(=O)N[C@@H](Cc1c[nH]c2ccccc12)C(=O)N[C@@H](CC(C)C)C(=O)N[C@H](C(=O)N[C@@H](CCCNC(=N)N)C(=O)NCC(=O)N[C@@H](CCCNC(=N)N)C(=O)NCC(=O)O)C(C)C [Control (semaglutide only), semaglutide] | –
